Results published in ChEMBL document CHEMBL6153132 (J Med Chem, 2025).
Activity calls are given as the source filed them. No cut-off for these calls is given here.

Tests used:
[1] = tested on: Cal27CisR; test: Induction of DNA damage in human Cal27CisR cells assessed as gamma-H2AX accumulation at 0.5 uM in presence of cisplatin by Western blot analysis; assay type: functional, cell-based
[2] = tested on: CAL-27; test: Anti-apoptotic activity in human CAL-27 cells assessed as increase in survivin expression at 0.5 uM incubated for 48 hrs in presence of cisplatin by Western blot analysis; assay type: functional, cell-based
[3] = target: Stromelysin-1 (Homo sapiens) (UniProt P08254); test: Inhibition of MMP3 (unknown origin) at 10 uM relative to control
[4] = target: Matrix metalloproteinase-9 (Homo sapiens) (UniProt P14780); test: Inhibition of MMP9 (unknown origin) at 10 uM relative to control
[5] = tested on: CAL-27; test: Anti-apoptotic activity in human CAL-27 cells assessed as increase in BCL-2 expression at 0.5 uM incubated for 48 hrs in presence of cisplatin by Western blot analysis; assay type: functional, cell-based
[6] = cells; details: Homo sapiens, Cal27CisR
[7] = Lipophilicity, logD of compound at pH 7.4; assay type: physicochemical; details: buffer
[8] = tested on: HL-60; test: cells; details: Homo sapiens, HL-60, 72 h
[9] = target: Glutaminyl-peptide cyclotransferase (Homo sapiens) (UniProt Q16769); test: Inhibition of glutaminyl cyclase (unknown origin) at 10 uM relative to control
[10] = tested on: CAL-27; test: Anti-apoptotic activity in human CAL-27 cells assessed as increase in BCL-2 expression at 0.5 uM incubated for 48 hrs by Western blot analysis; assay type: functional, cell-based
[11] = target: T1, Interstitial collagenase (Homo sapiens) (UniProt P03956); test: Inhibition of MMP1 (unknown origin) at 10 uM relative to control
T1 sequence (whole entry): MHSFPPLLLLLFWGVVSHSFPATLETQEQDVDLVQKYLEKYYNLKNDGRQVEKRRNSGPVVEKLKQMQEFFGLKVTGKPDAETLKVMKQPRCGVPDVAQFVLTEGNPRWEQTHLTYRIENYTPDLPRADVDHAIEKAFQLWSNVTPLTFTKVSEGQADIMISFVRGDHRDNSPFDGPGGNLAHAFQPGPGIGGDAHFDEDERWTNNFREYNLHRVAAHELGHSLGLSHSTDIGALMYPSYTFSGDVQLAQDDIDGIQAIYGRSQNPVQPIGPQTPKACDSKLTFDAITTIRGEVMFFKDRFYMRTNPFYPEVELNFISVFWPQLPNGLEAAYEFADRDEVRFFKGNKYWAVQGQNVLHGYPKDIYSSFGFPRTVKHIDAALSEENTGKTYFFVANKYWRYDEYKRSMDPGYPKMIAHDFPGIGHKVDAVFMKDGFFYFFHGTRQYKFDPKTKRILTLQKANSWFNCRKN

[12] = tested on: Cal27CisR; test: Induction of DNA damage in human Cal27CisR cells assessed as gamma-H2AX accumulation at 0.5 uM by Western blot analysis; assay type: functional, cell-based
[13] = tested on: A2780; test: cells; details: Homo sapiens
[14] = tested on: CAL-27; test: Induction of DNA damage in human CAL-27 cells assessed as gamma-H2AX accumulation at 0.5 uM in presence of cisplatin by Western blot analysis; assay type: functional, cell-based
[15] = cells; details: Homo sapiens, Cal27CisR, 72 h
[16] = tested on: CAL-27; test: Induction of DNA damage in human CAL-27 cells assessed as gamma-H2AX accumulation at 0.5 uM by Western blot analysis; assay type: functional, cell-based
[17] = Metabolic stability in human liver microsome assessed as intrinsic clearance; assay type: ADME; details: microsomes
[18] = tested on: A2780; test: Induction of cell cycle arrest in human A2780 cells assessed as increase in accumulation of cells at subG1 phase 0.5 to 1 uM; assay type: functional, cell-based; details: dose 0.5-1 µM
[19] = tested on: CAL-27; test: cells; details: Homo sapiens, CAL-27, 72 h
[20] = target: Collagenase 3 (Homo sapiens) (UniProt P45452); test: Inhibition of MMP13 (unknown origin) at 10 uM relative to control
[21] = tested on: CAL-27; test: Induction of apoptosis in human CAL-27 cells assessed as increase in BIM expression at 0.5 uM incubated for 48 hrs in presence of cisplatin by Western blot analysis; assay type: functional, cell-based
[22] = tested on: A2780cisR; test: cells; details: Homo sapiens
[23] = tested on: A2780; test: Induction of cell cycle arrest in human A2780 cells assessed as increase in accumulation of cells at subG1 phase; assay type: functional, cell-based
[24] = tested on: CAL-27; test: Induction of apoptosis in human CAL-27 cells assessed as increase in BIM expression at 0.5 uM incubated for 48 hrs by Western blot analysis; assay type: functional, cell-based
[25] = target: 72 kDa type IV collagenase (Homo sapiens) (UniProt P08253); test: Inhibition of MMP2 (unknown origin) at 10 uM relative to control
[26] = Metabolic stability in human liver microsome assessed as half life; assay type: ADME, microsomes; details: microsomes
[27] = tested on: CAL-27; test: Anti-apoptotic activity in human CAL-27 cells assessed as increase in survivin expression at 0.5 uM incubated for 48 hrs by Western blot analysis; assay type: functional, cell-based

Sequence of Matrix metalloproteinase-9 (Homo sapiens) (P14780 whole entry): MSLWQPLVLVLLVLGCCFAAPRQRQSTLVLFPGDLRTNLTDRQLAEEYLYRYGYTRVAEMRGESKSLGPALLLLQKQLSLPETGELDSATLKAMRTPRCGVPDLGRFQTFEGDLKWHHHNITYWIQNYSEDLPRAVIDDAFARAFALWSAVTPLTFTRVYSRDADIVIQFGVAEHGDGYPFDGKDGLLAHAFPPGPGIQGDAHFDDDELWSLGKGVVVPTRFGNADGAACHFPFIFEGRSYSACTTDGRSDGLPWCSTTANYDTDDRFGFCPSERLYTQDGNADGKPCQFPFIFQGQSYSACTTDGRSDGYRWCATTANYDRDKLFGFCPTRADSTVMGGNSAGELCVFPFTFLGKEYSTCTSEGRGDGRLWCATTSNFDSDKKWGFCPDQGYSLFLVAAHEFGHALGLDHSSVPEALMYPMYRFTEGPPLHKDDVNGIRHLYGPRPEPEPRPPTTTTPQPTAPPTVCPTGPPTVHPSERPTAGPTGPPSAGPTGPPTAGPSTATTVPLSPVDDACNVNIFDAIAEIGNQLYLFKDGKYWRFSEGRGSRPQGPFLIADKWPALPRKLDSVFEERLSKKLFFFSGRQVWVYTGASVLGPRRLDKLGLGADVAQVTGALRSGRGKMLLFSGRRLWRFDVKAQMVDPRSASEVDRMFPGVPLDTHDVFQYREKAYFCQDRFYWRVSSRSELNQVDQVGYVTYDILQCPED
Sequence of Stromelysin-1 (Homo sapiens) (P08254 100-477 limits assumed): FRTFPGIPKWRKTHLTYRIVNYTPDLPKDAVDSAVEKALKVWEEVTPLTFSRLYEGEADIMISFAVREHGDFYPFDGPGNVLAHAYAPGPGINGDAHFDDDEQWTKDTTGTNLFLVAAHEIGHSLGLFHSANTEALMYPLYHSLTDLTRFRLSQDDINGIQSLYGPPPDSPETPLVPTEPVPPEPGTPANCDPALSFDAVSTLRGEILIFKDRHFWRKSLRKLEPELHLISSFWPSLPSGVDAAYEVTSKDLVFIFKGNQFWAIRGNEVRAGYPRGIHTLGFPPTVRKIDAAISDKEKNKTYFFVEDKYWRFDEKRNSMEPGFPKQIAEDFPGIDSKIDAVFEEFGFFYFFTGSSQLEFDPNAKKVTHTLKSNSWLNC
Sequence of Glutaminyl-peptide cyclotransferase (Homo sapiens) (Q16769 29-361 limits assumed): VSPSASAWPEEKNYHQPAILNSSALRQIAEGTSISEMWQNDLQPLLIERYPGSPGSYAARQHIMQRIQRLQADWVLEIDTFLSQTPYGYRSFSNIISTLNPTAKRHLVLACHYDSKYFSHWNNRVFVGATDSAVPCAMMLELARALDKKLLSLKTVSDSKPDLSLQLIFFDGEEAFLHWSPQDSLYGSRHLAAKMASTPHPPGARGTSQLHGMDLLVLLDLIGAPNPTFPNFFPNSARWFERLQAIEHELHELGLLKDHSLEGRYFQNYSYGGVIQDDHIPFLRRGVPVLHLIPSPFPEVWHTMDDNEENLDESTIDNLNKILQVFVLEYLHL
Sequence of 72 kDa type IV collagenase (Homo sapiens) (P08253 110-660 limits assumed): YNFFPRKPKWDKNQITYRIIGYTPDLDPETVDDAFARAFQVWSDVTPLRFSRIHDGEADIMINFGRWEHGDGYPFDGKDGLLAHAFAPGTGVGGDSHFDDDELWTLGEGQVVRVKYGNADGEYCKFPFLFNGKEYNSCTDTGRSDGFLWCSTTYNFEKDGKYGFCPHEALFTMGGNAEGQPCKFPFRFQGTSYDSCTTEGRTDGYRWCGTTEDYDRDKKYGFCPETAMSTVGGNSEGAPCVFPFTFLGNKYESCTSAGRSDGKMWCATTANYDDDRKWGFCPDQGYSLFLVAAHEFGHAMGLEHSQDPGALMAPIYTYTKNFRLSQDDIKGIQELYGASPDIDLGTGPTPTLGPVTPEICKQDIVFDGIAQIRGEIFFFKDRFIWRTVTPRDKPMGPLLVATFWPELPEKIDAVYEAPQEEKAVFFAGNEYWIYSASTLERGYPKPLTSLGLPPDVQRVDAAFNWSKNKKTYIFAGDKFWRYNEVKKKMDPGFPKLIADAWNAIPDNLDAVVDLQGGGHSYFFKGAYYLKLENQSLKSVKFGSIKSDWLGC

inhibition [3]: inactive
inhibition [4]: inactive
IC50 [6]: 16500 nM
logD [7]: 2.69
IC50 [8]: 969 nM
inhibition [9]: inactive
inhibition [11]: inactive
IC50 [13]: 3500 nM
IC50 [15]: 2230 nM
CLH [17]: 40.9 µL/min/mg
IC50 [19]: 1470 nM
inhibition [20]: inactive
IC50 [22]: 16000 nM
inhibition [25]: inactive
t1/2 [26]: 33.93 min
Structure (SMILES): CCNNC(=O)c1ccc(CN(CC(=O)NCc2ccccc2)C(=O)c2ccc(N(C)C)cc2)cc1
Activity [1]: Active
Activity [2]: Active
Activity [5]: Active
Activity [10]: Active
Activity [12]: Active
Activity [14]: Active
Activity [16]: Active
Activity [18]: Active
Activity [21]: Active
Activity [23]: Active
Activity [24]: Active
Activity [27]: Active
